Columns and labels:
Experiment in all cases: relative viability (nuclei count vs DMSO), 5 days (fraction); higher = more cells survive
RERF-LC-KJ = system: RERF-LC-KJ
Summary of the method: (§1)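 Dosing by pin tool came one day after lung cancer cell lines were seeded in 1536-well plates, using either one drug or a fixed anchor-drug dose plus five library-drug doses (not always all listed) in √10 steps. After 5 days, nuclei were counted on 4× images. Relative viability is treated-well nuclei count divided by vehicle-well nuclei count, and values are medians of duplicate plates.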

NCI-H727 = system: NCI-H727
Summary of the method: as §1

NCI-H1666 = system: NCI-H1666
Summary of the method: as §1

BEN = system: BEN
Summary of the method: as §1

NCI-H1734 = system: NCI-H1734
Summary of the method: as §1

LOU-NH91 = system: LOU-NH91
Summary of the method: as §1

NCI-H647 = system: NCI-H647
Summary of the method: as §1

NCI-H1975 = system: NCI-H1975
Summary of the method: as §1

LCLC-103H = system: LCLC-103H
Summary of the method: as §1

CAL-12T = system: CAL-12T
Summary of the method: as §1

NCI-H838 = system: NCI-H838
Summary of the method: as §1

NCI-H1944 = system: NCI-H1944
Summary of the method: as §1

Cc1cn(-c2cc(NC(=O)c3ccc(C)c(Nc4nccc(-c5cccnc5)n4)c3)cc(C(F)(F)F)c2)cn1 [Nilotinib] + CS(=O)(=O)N1CCN(Cc2cc3nc(-c4cccc5[nH]ncc45)nc(N4CCOCC4)c3s2)CC1 [Pictilisib] (partner 1 µM)
relative viability (RERF-LC-KJ; first compound 0.03162 µM): 0.591 | relative viability (RERF-LC-KJ; first compound 0.1 µM): 0.55 | relative viability (NCI-H727; first compound 0.001 µM): 0.382 | relative viability (NCI-H727; first compound 0.01 µM): 0.447 | relative viability (NCI-H727; first compound 0.1 µM): 0.264 | relative viability (NCI-H1666; first compound 0.001 µM): 0.348 | relative viability (NCI-H1666; first compound 0.003162 µM): 0.319 | relative viability (NCI-H1666; first compound 0.01 µM): 0.373 | relative viability (NCI-H1666; first compound 0.03162 µM): 0.463 | relative viability (NCI-H1666; first compound 0.1 µM): 0.397 | relative viability (BEN; first compound 0.001 µM): 0.588 | relative viability (BEN; first compound 0.003162 µM): 0.552 | relative viability (BEN; first compound 0.01 µM): 0.574 | relative viability (BEN; first compound 0.1 µM): 0.556 | relative viability (NCI-H1734; first compound 0.001 µM): 0.445 | relative viability (NCI-H1734; first compound 0.003162 µM): 0.48 | relative viability (NCI-H1734; first compound 0.01 µM): 0.447 | relative viability (NCI-H1734; first compound 0.03162 µM): 0.384 | relative viability (NCI-H1734; first compound 0.1 µM): 0.236 | relative viability (LOU-NH91; first compound 0.001 µM): 0.548 | relative viability (LOU-NH91; first compound 0.003162 µM): 0.537 | relative viability (LOU-NH91; first compound 0.01 µM): 0.543 | relative viability (LOU-NH91; first compound 0.03162 µM): 0.483 | relative viability (LOU-NH91; first compound 0.1 µM): 0.54 | relative viability (NCI-H647; first compound 0.001 µM): 0.528 | relative viability (NCI-H647; first compound 0.003162 µM): 0.452 | relative viability (NCI-H647; first compound 0.01 µM): 0.38 | relative viability (NCI-H647; first compound 0.03162 µM): 0.43 | relative viability (NCI-H647; first compound 0.1 µM): 0.397 | relative viability (NCI-H1975; first compound 0.001 µM): 0.299 | relative viability (NCI-H1975; first compound 0.003162 µM): 0.358 | relative viability (NCI-H1975; first compound 0.01 µM): 0.231 | relative viability (NCI-H1975; first compound 0.03162 µM): 0.312 | relative viability (NCI-H1975; first compound 0.1 µM): 0.19 | relative viability (LCLC-103H; first compound 0.001 µM): 0.649 | relative viability (LCLC-103H; first compound 0.003162 µM): 0.638 | relative viability (LCLC-103H; first compound 0.03162 µM): 0.755 | relative viability (LCLC-103H; first compound 0.1 µM): 0.421 | relative viability (CAL-12T; first compound 0.001 µM): 0.45 | relative viability (CAL-12T; first compound 0.01 µM): 0.354 | relative viability (CAL-12T; first compound 0.03162 µM): 0.307 | relative viability (CAL-12T; first compound 0.1 µM): 0.398 | relative viability (NCI-H838; first compound 0.001 µM): 0.408 | relative viability (NCI-H838; first compound 0.003162 µM): 0.491 | relative viability (NCI-H838; first compound 0.01 µM): 0.335 | relative viability (NCI-H838; first compound 0.03162 µM): 0.41 | relative viability (NCI-H838; first compound 0.1 µM): 0.336 | relative viability (NCI-H1944; first compound 0.001 µM): 0.355 | relative viability (NCI-H1944; first compound 0.003162 µM): 0.342 | relative viability (NCI-H1944; first compound 0.01 µM): 0.358 | relative viability (NCI-H1944; first compound 0.03162 µM): 0.345 | relative viability (NCI-H1944; first compound 0.1 µM): 0.234

— the supplement of paper PMC10307832
